According to article PMC12051030, “Identification of inhibitors of the Salmonella FraB deglycase, a drug target” (FEBS Open Bio, 2025):
Like-named read-outs stand apart in the source and are kept apart here.

Columns and labels:
FraB = FraB (Salmonella enterica subsp. enterica serovar Typhimurium, UniProt Q8ZLD0); test: Native MS of FraB–inhibitor complexes; type: binding
Protocol: For MS analysis, FraB was buffer exchanged into 200 mM ammonium acetate (AmAc) (Sigma‐Aldrich) or 66.7 mM ethylenediaminediacetic acid (EDDA) (Sigma‐Aldrich) using micro Bio‐spin P6 spin columns (Bio‐Rad); AmAc and EDDA concentrations were chosen to ensure the same ionic strength. The pH was adjusted to 7.5 by adding ammonium hydroxide solution (Sigma‐Aldrich). 6‐P‐F‐Asp was diluted with water, while three different inhibitors [3470:A09, 3469:F02, and 3469:N17, all purchased from either ChemDiv (San Diego, CA, USA) or Ambinter (Orléans, France)] were diluted in DMSO. The final concentration of DMSO used in the native MS experiments was 4.8% (v/v) or 1% (v/v) for the compounds obtained from ChemDiv or Ambinter, respectively.
For the characterization of FraB–inhibitor complexes, the protein was diluted into 200 mM AmAc and then mixed with inhibitors to final concentrations of 3 μM FraB and 120 μM inhibitor. After adding the inhibitors, the FraB–inhibitor complex was incubated for 20 min at 20 °C before injecting into the mass spectrometry (MS). For the characterization of FraB–inhibitor–substrate complexes, FraB was diluted into 66.7 mM EDDA, mixed with inhibitors, incubated at 20 °C for 20 min, and subsequently mixed with 6‐P‐F‐Asp. The final concentrations were as follows: 3 μM FraB (monomer concentration), 120 μM inhibitor, and 600 μM 6‐P‐F‐Asp.
Native MS experiments were performed on Thermo Q Exactive ultra high mass range (UHMR) Orbitrap. Samples were introduced into the MS instrument by nano‐electrospray ionization, which using glass capillary tips pulled in‐house using a P‐97 micropipette puller (Sutter Instruments, Novato, CA, USA). Each sample (3–5 μL) was loaded into the tips, and the electrospray voltage was set between 0.6 and 1.0 kV. The mass spectrometer was operated in positive mode using the following tuning settings: Capillary temperature: 200 °C detector optimization: low m/z; ion transfer target: high m/z; in‐source trapping (IST): 50 V, except when applying higher IST to disrupt the FraB–inhibitor interactions; HCD trap gas flow: 5; Resolution: 12 500. Mass spectra were collected after the spray stabilized (typically < 5 min) and then examined using XCalibur 4.1 (Thermo Scientific), and deconvolved using UniDec software.

[1] = molecular target: His6‐FraB (Salmonella FraB deglycase) (Salmonella enterica subsp. enterica serovar Typhimurium, UniProt Q8ZLD0); test: FraB-G6PD coupled assay, Michaelis–Menten analysis for K I and mode of inhibition; type: biochemical
Protocol: To determine the K I of each inhibitor, 29 μL of master mix was added to two rows of a 384‐well Greiner plate, using a single‐channel pipette, and incubated at 20 °C for 20 min. A 12‐channel pipette was then used to transfer and mix 1 μL of varying [6‐P‐F‐Asp] to all 48 wells. The final reaction (30 μL) consisted of 25 mM HEPES pH 8.0 at 20 °C, 5 mM MgCl2, 0.1 mM EGTA, 0.5 mM NAD^+, 1 mU G6PD, 100 nM His6‐FraB, varying (6‐P‐F‐Asp) (between 8 and 12 concentrations), and varying [inhibitor] (between three and five concentrations) in 10% (v/v) DMSO. NADH fluorescence was monitored every 10 s for 10 min total on a SPARK® multi‐mode multiplate reader (Tecan), as described above, and plotted against time. Slopes of the linear range of each curve were converted to initial velocities, as described above, that were then plotted against [6‐P‐F‐Asp]. A hyperbolic curve was then fitted to the data to obtain the k cat and K m values according to the formula: v o = (V max × [S])/(K m + [S]).
To determine the correlation between the observed and expected initial velocities (Fig. S5A), these values were exported from Kaleidagraph, plotted against one another, and a curve was fit using the formula: y = mx + b. The differences between observed and expected initial velocities (residuals) were then depicted as box‐and‐whisker plots (Fig. S5B). Lineweaver‐Burk plots were generated by graphing 1/v o versus 1/[S] and curves were fit to the data with Kaleidagraph using the formula: 1/v o = (Km/V max).(1/[S]) + (1/V max). The k cat and K m parameters were then converted into α′ values by dividing the k cat of the control (no inhibitor) by either itself (α′= 1) or the k cat of test samples with variable [inhibitor]. Those α′ values were plotted against [inhibitor] and K I values were determined from the equation α = 1 + [I]/K I.
The initial velocities used to generate the Michaelis–Menten plots were also employed to obtain the IC50 vs [S]/K m plots. For a given [S], initial velocities were converted into relative activities and plotted versus [inhibitor]. […] The IC50 values determined from the IC50 vs [S]/K m plots were then used to plot 1/IC50 versus v o/V max. A curve was fit to the data using the formula: y = mx + b. The Y‐intercept of the 1/IC50 versus v o/V max plot is equal to 1/K IC, and the slope, for mixed inhibitors, is equal to 1/K IU – 1/K IC. […] Data analyses were performed as described above (see Tables S1–S7 for curve‐fit errors and goodness‐of‐fit values).

Sequence of His6‐FraB (Salmonella FraB deglycase) (Q8ZLD0 entry or part of it): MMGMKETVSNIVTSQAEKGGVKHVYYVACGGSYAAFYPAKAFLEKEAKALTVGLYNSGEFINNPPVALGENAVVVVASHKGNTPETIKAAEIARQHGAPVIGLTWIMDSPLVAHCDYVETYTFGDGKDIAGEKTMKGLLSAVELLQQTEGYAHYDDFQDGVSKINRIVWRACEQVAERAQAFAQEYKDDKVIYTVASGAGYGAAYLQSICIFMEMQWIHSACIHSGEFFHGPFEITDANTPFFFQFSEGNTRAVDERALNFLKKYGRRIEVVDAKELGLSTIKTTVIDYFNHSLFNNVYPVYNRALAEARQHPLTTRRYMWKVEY
Sequence of FraB (Q8ZLD0 entry or part of it): as above

c1ccc(-c2nnc3sc(C4COc5ccccc5O4)nn23)nc1 (centres unmarked) [3469:F02, 6‐(2,3‐dihydro‐1,4‐benzodioxin‐3‐yl)‐3‐pyridin‐2‐yl‐[1,2,4]triazolo[3,4‐b][1,3,4]thiadiazole]
binding to FraB by native MS (species observed) (FraB; 3 μM FraB, 120 μM inhibitor, IST 50 V, E2I/E2I2 = FraB dimer bound to one or two inhibitor copies): distinct peaks corresponding to E2I and E2I2 | type of FraB–inhibitor interaction (covalent vs noncovalent) (FraB; decrease in E2I and E2I2 with increasing IST voltage): noncovalent | change of IC50 values with increasing [S]/K m ([1]; 'this trend' = IC50 does not vary with [S]/K m, change evident only from 0.2 to 1.6× [S]/K m): slight increase | slope in plots of 1/IC50 vs. v o/V max ([1]; Fig. S12): weakly negative | IC50 ([1]; Trial 1, 6-P-F-Asp 7.38 µM, S/Km 0.175714, unit from Fig. S11 axis, read-out: IC50 (IC50 versus [S]/Km plots)): 18.9 µM | IC50 ([1]; Trial 1, 6-P-F-Asp 15.7 µM, S/Km 0.37381, unit from Fig. S11 axis, read-out: IC50 (IC50 versus [S]/Km plots)): 27.6 µM | IC50 ([1]; Trial 1, 6-P-F-Asp 31.3 µM, S/Km 0.745238, unit from Fig. S11 axis, read-out: IC50 (IC50 versus [S]/Km plots)): 33.5 µM | IC50 ([1]; Trial 1, 6-P-F-Asp 62.5 µM, S/Km 1.488095, unit from Fig. S11 axis, read-out: IC50 (IC50 versus [S]/Km plots)): 27.9 µM | IC50 ([1]; Trial 1, 6-P-F-Asp 125 µM, S/Km 2.97619, unit from Fig. S11 axis, read-out: IC50 (IC50 versus [S]/Km plots)): 34 µM | IC50 ([1]; Trial 1, 6-P-F-Asp 250 µM, S/Km 5.952381, unit from Fig. S11 axis, read-out: IC50 (IC50 versus [S]/Km plots)): 31.8 µM | IC50 ([1]; Trial 1, 6-P-F-Asp 500 µM, S/Km 11.90476, unit from Fig. S11 axis, read-out: IC50 (IC50 versus [S]/Km plots)): 32.7 µM | IC50 ([1]; Trial 1, 6-P-F-Asp 750 µM, S/Km 17.85714, unit from Fig. S11 axis, read-out: IC50 (IC50 versus [S]/Km plots)): 33.7 µM | IC50 ([1]; Trial 1, 6-P-F-Asp 1000 µM, S/Km 23.80952, unit from Fig. S11 axis, read-out: IC50 (IC50 versus [S]/Km plots)): 33.9 µM | IC50 ([1]; Trial 1, 6-P-F-Asp 2000 µM, S/Km 47.61905, unit from Fig. S11 axis, read-out: IC50 (IC50 versus [S]/Km plots)): 36.1 µM | IC50 ([1]; Trial 1, 6-P-F-Asp 3000 µM, S/Km 71.42857, unit from Fig. S11 axis, read-out: IC50 (IC50 versus [S]/Km plots)): 52.6 µM | IC50 ([1]; Trial 2, 6-P-F-Asp 7.38 µM, S/Km 0.175714, unit from Fig. S11 axis, read-out: IC50 (IC50 versus [S]/Km plots)): 41.2 µM | IC50 ([1]; Trial 2, 6-P-F-Asp 15.7 µM, S/Km 0.37381, unit from Fig. S11 axis, read-out: IC50 (IC50 versus [S]/Km plots)): 41.3 µM | IC50 ([1]; Trial 2, 6-P-F-Asp 31.3 µM, S/Km 0.745238, unit from Fig. S11 axis, read-out: IC50 (IC50 versus [S]/Km plots)): 51.7 µM | IC50 ([1]; Trial 2, 6-P-F-Asp 62.5 µM, S/Km 1.488095, unit from Fig. S11 axis, read-out: IC50 (IC50 versus [S]/Km plots)): 51.3 µM | IC50 ([1]; Trial 2, 6-P-F-Asp 125 µM, S/Km 2.97619, unit from Fig. S11 axis, read-out: IC50 (IC50 versus [S]/Km plots)): 49.2 µM | IC50 ([1]; Trial 2, 6-P-F-Asp 250 µM, S/Km 5.952381, unit from Fig. S11 axis, read-out: IC50 (IC50 versus [S]/Km plots)): 47.8 µM | IC50 ([1]; Trial 2, 6-P-F-Asp 500 µM, S/Km 11.90476, unit from Fig. S11 axis, read-out: IC50 (IC50 versus [S]/Km plots)): 46.1 µM | IC50 ([1]; Trial 2, 6-P-F-Asp 750 µM, S/Km 17.85714, unit from Fig. S11 axis, read-out: IC50 (IC50 versus [S]/Km plots)): 45.4 µM | IC50 ([1]; Trial 2, 6-P-F-Asp 1000 µM, S/Km 23.80952, unit from Fig. S11 axis, read-out: IC50 (IC50 versus [S]/Km plots)): 48.9 µM | IC50 ([1]; Trial 2, 6-P-F-Asp 2000 µM, S/Km 47.61905, unit from Fig. S11 axis, read-out: IC50 (IC50 versus [S]/Km plots)): 59.2 µM | IC50 ([1]; Trial 2, 6-P-F-Asp 3000 µM, S/Km 71.42857, unit from Fig. S11 axis, read-out: IC50 (IC50 versus [S]/Km plots)): 67.2 µM | K IU/K IC ratio ([1]; average (±SE), from 1/IC50 versus v o/V max plots): 1.35 ± 0.25 | Ki ([1]; from Michaelis–Menten analysis of FraB at different inhibitor concentrations, average and standard error from two measurements, read-out: K I): 28.5 ± 3.5 µM | mode of inhibition ([1]; kinetic analyses (Lineweaver‐Burk, α′ vs [I], IC50 vs [S]/K m, 1/IC50 vs v o/V max)): mixed‐type competitive | IC50 ([1]; trial shown in Fig. S11 panels M-X, read-out: IC50, mean and standard deviation of all IC50 values in IC50 vs [S]/Km plot): 50 ± 8 µM | Ki ([1]; trial shown in Fig. S11 panels M-X, read-out: KI from α′ vs [I] plot): 25 µM | Ki ([1]; trial shown in Fig. S11 panels Y-AJ, read-out: KI from α′ vs [I] plot): 32 µM
